The values below come from PMC6778101 (Nature Communications, 2019).

Assay [1] has as its system E.coli K-12 BW25113. It counts as cell-based, Escherichia coli. The following applies: for MIC (freshly prepared AMP): plates inoculated immediately; for MIC (pre-incubated AMP): plates pre-incubated 72 hours before inoculation. How it is done:
(§1) MICs were determined using a standard serial broth dilution technique. Briefly, 11-step serial dilutions were prepared in 96-well microtiter plates with three replicates per strain and antimicrobial compound. Each experiment was repeated at least twice. 5 × 10^5 cells/mL were inoculated into each well, and the plates were incubated at 30 °C in case of E. coli K-12 BW25113, and its antibiotic and AMP-adapted lines, or 37 °C in case of the other bacterial species. Plates were shaken at 300 r.p.m. during incubation for 24 and 18 h, respectively. Cell growth was monitored by measuring the optical density (OD600 value, Biotek Synergy 2 microplate reader was used for this purpose). […] Relative MIC was calculated as follows: MICrelative = MICevolved/MICcontrol.
Supplementary Table 7- Effect of incubation time on the minimum inhibitory concentration (MIC) of AMPs. We tested whether the prolonged incubation time can affect the MIC of AMPs. To test this, two sets of AMP containing MIC plates were prepared in parallel. The first set was immediately inoculated with E.coli K-12 BW25113, while the second set was pre-incubated 72 hours before inoculation with the […]
observed in the MIC between freshly prepared and pre-incubated plates. […]

For assay [2], the system named is A. baumannii ATCC 17978. The assay is classed as cell-based, Acinetobacter baumannii. The following applies: starting strain; broth dilution, MS medium, 37 °C, 18 h. How it is done:
(§2) Unless otherwise indicated, we used E. coli K-12 BW25113 in all high-throughput experiments. To investigate the impact of mutation rate on evolution of AMP resistance, we initiated laboratory evolution with a mutator strain E. coli mutD5 that carries mutations in the dnaQ gene (L73W and A164V).
as §1
Background: Dilution methods test growth across graded concentrations, often in twofold steps.

Assay [3] has as its system E. coli K-12 BW25113. The assay is described as follows: microbe, parasite or virus in culture. The following applies: starting wild-type strain of the evolution experiment; broth dilution, MS medium, 5 × 10^5 cells/mL, 30 °C, 24 h, MIC = OD600 < 0.05. The assay is classed as cell-based, Escherichia coli.
The test system of assay [4] is E. coli ATCC 25922. It counts as cell-based, Escherichia coli. The following applies: starting strain; broth dilution, MS medium, 37 °C, 18 h. As for the experimental part: as §2, §1
The subject of assay [5] is K. pneumoniae ATCC 10031. The assay is classed as cell-based, Klebsiella pneumoniae. The following applies: starting strain; broth dilution, MS medium, 37 °C, 18 h. How it is done: as §2, §1
Assay [6] relates to E. coli K-12 BW25113 carrying ASKA plasmids. The assay is described as follows: microbe, parasite or virus in culture. It counts as cell-based, Escherichia coli. The following applies: MS medium + 10 µg mL−1 CHL + 500 µM IPTG, 5 × 10^5 cells, 16–18 h, 37 °C. Put shortly:
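E. coli BW25113 transformed with the pooled ASKA ORF overexpression library, or empty-vector control, grown with CHL, induced with IPTG.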

Assay [7] deals with S. enterica LT2. It counts as cell-based, Salmonella enterica subsp. enterica serovar Typhimurium. The following applies: starting strain; broth dilution, MS medium, 37 °C, 18 h. As for the experimental part: as §2, §1
The subject of assay [8] is E. coli ATCC 25922, S. enterica LT2, K. pneumoniae ATCC 10031, A. baumannii ATCC 17978. The experiment in a line: Laboratory evolution in pathogenic bacteria, statements for all four pathogens together. The assay is classed as cell-based. From the text: The tested pathogens initially sensitive to the AMPs and the antibiotics included Escherichia coli (ATCC® 25922™) (abbreviated as E. coli ATCC 25922), Salmonella enterica subsp. enterica serovar Typhimurium LT2 (abbreviated as S. enterica LT2), Klebsiella pneumoniae subsp. pneumoniae (Schroeter) Trevisan (ATCC® 10031™) (abbreviated as K. pneumoniae ATCC 10031) and Acinetobacter baumannii Bouvet and Grimont (ATCC® 17978™) (abbreviated as A. baumannii ATCC 17978).
The evolutionary protocol was designed to avoid population extinction and to ensure that populations with the highest level of resistance were propagated further. Starting with a subinhibitory drug concentration (Supplementary Data 8), resulting in ~50% growth inhibition, 10 parallel populations per drug were allowed to grow in Minimal Salts medium for 72 h and 300 r.p.m. E. coli K-12 BW25113 and E. coli mutD5 populations were incubated at 30 °C, while E. coli ATCC 25922, S. enterica LT2, K. pneumonia ATCC 10031, and A. baumannii ATCC 17978 were incubated at 37 °C. […] Prior to each transfer, cell growth was monitored by measuring the optical density at 600 nm (OD600 value, Biotek Synergy 2 microplate reader). Only populations with the highest drug concentration (and reaching OD600 > 0.2) were selected for further evolution. A chess-board layout was used on the plate to monitor potential cross-contamination events. […] E. coli mutD5 was adapted to TPII, also in 10 parallel evolving populations.
MICs were determined using a standard serial broth dilution technique. Briefly, 11-step serial dilutions were prepared in 96-well microtiter plates with three replicates per strain and antimicrobial compound. Each experiment was repeated at least twice. […] Cell growth was monitored by measuring the optical density (OD600 value, Biotek Synergy 2 microplate reader was used for this purpose). […] Relative MIC was calculated as follows: MICrelative = MICevolved/MICcontrol.

The mark [9] stands for this setting: time allowed for bacterial growth 24 hours.
[10] abbreviates: time allowed for bacterial growth 48 hours.
Where [11] appears, read: time allowed for bacterial growth 72 hours.

Where two headings read alike, the source gives them in different places.

For “KTKKKFLKKT [PXB, Polymyxin B, AMP used as a last-resort drug in the treatment of multidrug-resistant Gram-negative bacterial infections; from Sigma-Aldrich]”, the “MIC (freshly prepared AMP)” value in assay [1] (setting [9]), in assay [1] (setting [10]) and in assay [1] (setting [11]) was 4.2 mg/L throughout. For the same sequence, the “MIC (pre-incubated AMP)” value in assay [1] (setting [9]), in assay [1] (setting [10]) and in assay [1] (setting [11]) was 5 mg/L in each case. Further, the MIC in assay [2] worked out at 2 mg/L; in assay [3], 2.5 mg/L; in assay [4], 6 mg/L; in assay [5], 2 mg/L; in assay [7], 8 mg/L. Moreover, the “MIC value of E. coli K-12 BW25113 carrying the empty plasmid of the ASKA library” value in assay [6] (Replicate 1), in assay [6] (Replicate 2) and in assay [6] (Replicate 3) was 3.18 mg/L throughout. Besides, the “MIC value of E. coli K-12 BW25113 carrying the pooled plasmids of the ASKA library” value in assay [6] (Replicate 1), in assay [6] (Replicate 2) and in assay [6] (Replicate 3) was 3.18 mg/L in each case. In assay [8] (all four pathogenic species), the “resistance after laboratory evolution in pathogens (in words)” value is on record as “a high level of PXB-resistance has emerged in all pathogens studied”. Further, in assay [8] (certain lines, highest value over the four pathogens), the “increment of resistance level compared to the corresponding wild-type strain” value is listed as ≤ 20,000 times.
